# Measurements reported in publication PMC10485003, “Antibiotic hyper-resistance in a class I aminoacyl-tRNA synthetase with altered active site signature motif” (Nature Communications, 2023).
# Several values for one entry are separate records, joined by “and”; a condition that tells them apart may be missing. Identical values can stand only once. Like-named read-outs stand apart in the source and are kept apart here.
# Key:
# [1] = molecular target: wt-HVGH PmIleRS2; details: cited from earlier work
# [2] = tested on: W130Q PmIleRS2; assay: ATP-PPi exchange assay, mupirocin inhibition of amino acid activation; type: biochemical, Priestia (Bacillus) megaterium; details: for vo (initial enzyme velocity): Replica 1-3
# Method: L-Ile and ATP concentrations ranged from 1/10 KM to 10 KM values. When measuring the KI towards one of the substrates, the other was held in saturation (concentrations at least 10 KM). The aliquots of the reaction mixture (1–2.5 μl) were quenched in 2 volumes of 500 mM NaOAc pH = 4.5, 0.1% SDS, and formed ^32P-ATP was separated from the remaining ^32P-PPi by thin-layer chromatography on Polygram CEL 300 PEI UV254 TLC plates (Macherey-Nagel, cat: 801063) using 750 mM KH2PO4 pH=3.5, 4 M urea buffer. Visualization and quantification of the signals was performed using a Typhoon Phosphoimager 5 (General Electric) and accompanying ImageQuant™ TL software (SV: 10.2). The kinetic constants were determined using a global fit option of the competitive inhibition model of GraphPad Prism 6 software (SV: 6.01). All experiments were performed in triplicates. The kcat was determined by dividing the maximal velocity, VM, with the used enzyme concentration.
# Source data are provided as a Source Data file. Data are presented as the average value
# ± SD of three independent experiments. b) A 2Fo-Fc Fourier difference map of the W130Q-HVGH-PmIleRS2:Ile-AMS […]
smiles,measurement,setting,value
C/C(=C\C(=O)OCCCCCCCCC(=O)O)C[C@@H]1OC[C@H](C[C@@H]2O[C@H]2[C@@H](C)[C@H](C)O)[C@@H](O)[C@H]1O [mupirocin],Ki,"[1]; amino acid activation step, ATP/PPi exchange assay, Ile varied, read-out: KI (MUP)Ile",1.08 ± 0.06 µM
same,Ki,"[1]; mupirocin inhibition towards Ile, GraphPad Prism output, Repl1-Repl3, Table 1 footnote b gives this enzyme's values as from ref 21, read-out: KI, single replicates",1.04 µM and 0.99 µM and 1.18 µM
same,vo (initial enzyme velocity),"[2]; c (mupirocin) = 1.0 μM, c (ATP) 5.0 mM, raw data for KI(MUP) towards ATP",0.02357 mM/min and 0.02647 mM/min and 0.02323 mM/min
same,vo (initial enzyme velocity),"[2]; c (mupirocin) = 1.0 μM, c (ATP) 10.0 mM, raw data for KI(MUP) towards ATP",0.0305 mM/min and 0.03243 mM/min and 0.02895 mM/min
same,vo (initial enzyme velocity),"[2]; c (mupirocin) = 1.0 μM, c (ATP) 15.0 mM, raw data for KI(MUP) towards ATP",0.0343 mM/min and 0.0357 mM/min and 0.0344 mM/min
same,vo (initial enzyme velocity),"[2]; c (mupirocin) = 1.0 μM, c (ATP) 25.0 mM, raw data for KI(MUP) towards ATP",0.03769 mM/min and 0.03939 mM/min and 0.0387 mM/min
same,vo (initial enzyme velocity),"[2]; c (mupirocin) = 1.0 μM, c (Ile) 10.0 μM, raw data for KI(MUP) towards Ile",0.0192 mM/min
same,vo (initial enzyme velocity),"[2]; c (mupirocin) = 1.0 μM, c (Ile) 20.0 μM, raw data for KI(MUP) towards Ile",0.02795 mM/min and 0.02585 mM/min and 0.02685 mM/min
same,vo (initial enzyme velocity),"[2]; c (mupirocin) = 1.0 μM, c (Ile) 40.0 μM, raw data for KI(MUP) towards Ile",0.03537 mM/min and 0.0321 mM/min and 0.03467 mM/min
same,vo (initial enzyme velocity),"[2]; c (mupirocin) = 1.0 μM, c (Ile) 80.0 μM, raw data for KI(MUP) towards Ile",0.04151 mM/min and 0.04237 mM/min and 0.04366 mM/min
same,vo (initial enzyme velocity),"[2]; c (mupirocin) = 1.0 μM, c (Ile) 120.0 μM, raw data for KI(MUP) towards Ile",0.0461 mM/min and 0.04503 mM/min and 0.04686 mM/min
same,vo (initial enzyme velocity),"[2]; c (mupirocin) = 5.0 μM, c (ATP) 5.0 mM, raw data for KI(MUP) towards ATP",0.0136 mM/min and 0.01356 mM/min and 0.01125 mM/min
same,vo (initial enzyme velocity),"[2]; c (mupirocin) = 5.0 μM, c (ATP) 10.0 mM, raw data for KI(MUP) towards ATP",0.021 mM/min and 0.0203 mM/min and 0.0182 mM/min
same,vo (initial enzyme velocity),"[2]; c (mupirocin) = 5.0 μM, c (ATP) 15.0 mM, raw data for KI(MUP) towards ATP",0.02537 mM/min and 0.0244 mM/min and 0.02261 mM/min
same,vo (initial enzyme velocity),"[2]; c (mupirocin) = 5.0 μM, c (ATP) 25.0 mM, raw data for KI(MUP) towards ATP",0.02943 mM/min and 0.02877 mM/min and 0.02783 mM/min
same,vo (initial enzyme velocity),"[2]; c (mupirocin) = 5.0 μM, c (Ile) 10.0 μM, raw data for KI(MUP) towards Ile",0.00903 mM/min and 0.00774 mM/min and 0.00698 mM/min
same,vo (initial enzyme velocity),"[2]; c (mupirocin) = 5.0 μM, c (Ile) 20.0 μM, raw data for KI(MUP) towards Ile",0.01459 mM/min and 0.01343 mM/min and 0.013 mM/min
same,vo (initial enzyme velocity),"[2]; c (mupirocin) = 5.0 μM, c (Ile) 40.0 μM, raw data for KI(MUP) towards Ile",0.0221 mM/min and 0.01963 mM/min and 0.02145 mM/min
same,vo (initial enzyme velocity),"[2]; c (mupirocin) = 5.0 μM, c (Ile) 80.0 μM, raw data for KI(MUP) towards Ile",0.02978 mM/min and 0.02747 mM/min and 0.02888 mM/min
same,vo (initial enzyme velocity),"[2]; c (mupirocin) = 5.0 μM, c (Ile) 120.0 μM, raw data for KI(MUP) towards Ile",0.03377 mM/min
same,vo (initial enzyme velocity),"[2]; c (mupirocin) = 10.0 μM, c (ATP) 5.0 mM, raw data for KI(MUP) towards ATP",0.00715 mM/min and 0.00752 mM/min and 0.00698 mM/min
same,vo (initial enzyme velocity),"[2]; c (mupirocin) = 10.0 μM, c (ATP) 10.0 mM, raw data for KI(MUP) towards ATP",0.01301 mM/min and 0.0137 mM/min and 0.0124 mM/min
same,vo (initial enzyme velocity),"[2]; c (mupirocin) = 10.0 μM, c (ATP) 15.0 mM, raw data for KI(MUP) towards ATP",0.0168 mM/min and 0.01667 mM/min and 0.01548 mM/min
same,vo (initial enzyme velocity),"[2]; c (mupirocin) = 10.0 μM, c (ATP) 25.0 mM, raw data for KI(MUP) towards ATP",0.02198 mM/min and 0.0226 mM/min and 0.02035 mM/min
same,vo (initial enzyme velocity),"[2]; c (mupirocin) = 10.0 μM, c (Ile) 20.0 μM, raw data for KI(MUP) towards Ile",0.00596 mM/min and 0.0067 mM/min and 0.0071 mM/min
same,vo (initial enzyme velocity),"[2]; c (mupirocin) = 10.0 μM, c (Ile) 40.0 μM, raw data for KI(MUP) towards Ile",0.01336 mM/min and 0.01164 mM/min and 0.01202 mM/min
same,vo (initial enzyme velocity),"[2]; c (mupirocin) = 10.0 μM, c (Ile) 80.0 μM, raw data for KI(MUP) towards Ile",0.02022 mM/min and 0.01917 mM/min and 0.021 mM/min
same,vo (initial enzyme velocity),"[2]; c (mupirocin) = 10.0 μM, c (Ile) 120.0 μM, raw data for KI(MUP) towards Ile",0.0257 mM/min and 0.02427 mM/min and 0.02578 mM/min
same,vo (initial enzyme velocity),"[2]; c (mupirocin) = 25.0 μM, c (ATP) 5.0 mM, raw data for KI(MUP) towards ATP",0.00415 mM/min and 0.00472 mM/min and 0.00553 mM/min
same,vo (initial enzyme velocity),"[2]; c (mupirocin) = 25.0 μM, c (ATP) 10.0 mM, raw data for KI(MUP) towards ATP",0.0064 mM/min and 0.00737 mM/min and 0.0088 mM/min
same,vo (initial enzyme velocity),"[2]; c (mupirocin) = 25.0 μM, c (ATP) 15.0 mM, raw data for KI(MUP) towards ATP",0.01013 mM/min and 0.00993 mM/min and 0.01101 mM/min
same,vo (initial enzyme velocity),"[2]; c (mupirocin) = 25.0 μM, c (ATP) 25.0 mM, raw data for KI(MUP) towards ATP",0.01337 mM/min and 0.01219 mM/min and 0.01445 mM/min
same,vo (initial enzyme velocity),"[2]; c (mupirocin) = 25.0 μM, c (Ile) 10.0 μM, raw data for KI(MUP) towards Ile",0.0021 mM/min and 0.00205 mM/min and 0.00211 mM/min
same,vo (initial enzyme velocity),"[2]; c (mupirocin) = 25.0 μM, c (Ile) 20.0 μM, raw data for KI(MUP) towards Ile",0.00338 mM/min and 0.00346 mM/min
same,vo (initial enzyme velocity),"[2]; c (mupirocin) = 25.0 μM, c (Ile) 40.0 μM, raw data for KI(MUP) towards Ile",0.00807 mM/min and 0.00657 mM/min and 0.00667 mM/min
same,vo (initial enzyme velocity),"[2]; c (mupirocin) = 25.0 μM, c (Ile) 80.0 μM, raw data for KI(MUP) towards Ile",0.012 mM/min and 0.01121 mM/min and 0.01201 mM/min
same,vo (initial enzyme velocity),"[2]; c (mupirocin) = 25.0 μM, c (Ile) 120.0 μM, raw data for KI(MUP) towards Ile",0.01558 mM/min and 0.01519 mM/min and 0.0161 mM/min
same,Ki for mupirocin compared with wild-type,"[2]; kinetic analysis, Supplementary Fig. 8",remained the same
